The text below walks through data of ChEMBL document CHEMBL1629565, “Relationships among ciprofloxacin, gatifloxacin, levofloxacin, and norfloxacin MICs for fluoroquinolone-resistant Escherichia coli clinical isolates” (2009).

≈ marks a conversion by molar mass, not a printed value. Where “and” joins values, the source holds several entries; their conditions need not be identical. Equal values may be shown once.

Type in all cases: functional
Experiment [1] relates to Escherichia coli. Briefly: Antimicrobial activity against Escherichia coli ATCC 25922 by agar dilution method. (In agar dilution, organisms are placed on agar that contains the substance at set levels.)
Experiment [2] concerns Escherichia coli. Briefly: Antimicrobial activity against fluoroquinolone-sensitive Escherichia coli clinical isolate by Etest.
Experiment [3] concerns Escherichia coli. Put plainly: Antimicrobial activity against fluoroquinolone-resistant Escherichia coli clinical isolate by agar dilution method.
Experiment [4] deals with Escherichia coli. Put plainly: Antimicrobial activity against fluoroquinolone-resistant Escherichia coli clinical isolate by Etest.

As for `CCn1cc(C(=O)O)c(=O)c2cc(F)c(N3CCNCC3)cc21` [NORFLOXACIN], the MIC is 0.03 µg/mL (≈ 0.0939 µM) against Escherichia coli [1]; 0.06 µg/mL and 0.02 µg/mL against Escherichia coli [2]; 232 µg/mL (≈ 727 µM) against Escherichia coli [3]; 16 µg/mL (≈ 50.1 µM) with Escherichia coli [4].

`C[C@H]1COc2c(N3CCN(C)CC3)c(F)cc3c(=O)c(C(=O)O)cn1c23.C[C@H]1COc2c(N3CCN(C)CC3)c(F)cc3c(=O)c(C(=O)O)cn1c23.O` [LEVOFLOXACIN]: the MIC against Escherichia coli [2] was 0.023 µg/mL; in the experiment on Escherichia coli [2] (Escherichia coli, read-out: MIC), 0.042 µg/mL; in the experiment with Escherichia coli [3], 39 µg/mL; in the experiment with Escherichia coli [4], 8 µg/mL.

As for `COc1c(N2CCNC(C)C2)c(F)cc2c(=O)c(C(=O)O)cn(C3CC3)c12` (stereo unspecified) [GATIFLOXACIN], the minimum inhibitory concentration (MIC) against Escherichia coli [1] came to 0.004 µg/mL (≈ 0.0107 µM); against Escherichia coli [3], 23 µg/mL (≈ 61.3 µM); against Escherichia coli [4], 8 µg/mL (≈ 21.3 µM).

The MIC is the smallest concentration in the dilution series that meets the test's criterion for growth inhibition.
